Tests used:
RPS6 = experiment: Western blot of P-RPS6 (Ser235/Ser236) in human primary myotubes (controls and LGMDR1 patients); type: cell-based; details: 48 h; for P-RPS6 (S235-S236), protein expression value relative to the same sample without treatment: tideglusib 1.2 μM; for P-RPS6 (S235-S236), Western blot densitometry: LiCl 10 mM
Protocol: (§1) To obtain primary myoblasts, muscle biopsies were processed and cultured in monolayer according to the method described by Askanas (Neurology, 1975, 25, 58-67). To isolate the pure population of myoblasts and CD56-negative cells (CD56-), the protocol described previously (Jaka et al., Expert Reviews in Molecular Medicine, 2017, 19, e2) was used, using immunomagnetic separation based on the early presence of the surface marker CD56 (Miltenyi Biotec, 130-050-401).
(§2) Myoblasts were cultured in proliferation medium (DMEM, M-199, Insulin, Glutamine and penicillin-streptomycin) with 10% FBS and growth factors at 37° C. in 5% CO2 air incubator. When myoblasts reached confluence, the FBS concentration was reduced to 2% and growth factors were removed from the medium, promoting fusion and production of myotubes.
(§3) Tideglusib was provided by Dr. Ana Martínez (from The Center for Biological Research, CSIC). It was administered at 1.2 μM, whereas LiCI (Sigma-Aldrich, L7026) was used for comparative purposes at a final concentration of 10 mM. Tideglusib and LiCI were administered at the above referred concentrations to myotubes at eight days of differentiation, and tideglusib also to skin fibroblasts and to CD56-cells. Negative controls, in the case of tideglusib, were performed with DMSO (Fisher Scientific, BP-231). At 48 hours after drug administration, RNA and proteins were extracted.
(§4) Protein collection from muscle samples and cell cultures, as well as Western blot procedure, were performed as previously described (Jaka et al., Expert Reviews in Molecular Medicine, 2017, 19, e2).

CD56-cells = experiment: Western blot of Wnt and mTOR pathway proteins in CD56- cells from muscle; type: cell-based, human; details: 1.2 μM, 48 h
From the text: (§5) To obtain primary myoblasts, muscle biopsies were processed and cultured in monolayer according to the method described by […] (Neurology, 1975, 25, 58-67). To isolate the pure population of myoblasts and CD56-negative cells (CD56-), the protocol described previously (Jaka et al., Expert Reviews in Molecular Medicine, 2017, 19, e2) was used, using immunomagnetic separation based on the early presence of the surface marker CD56 (Miltenyi Biotec, 130-050-401). Tideglusib was provided by Dr. Ana Martínez (from The Center for Biological Research, CSIC). It was administered at 1.2 μM, whereas LiCI (Sigma-Aldrich, L7026) was used for comparative purposes at a final concentration of 10 mM. Tideglusib and LiCI were administered at the above referred concentrations to myotubes at eight days of differentiation, and tideglusib also to skin fibroblasts and to CD56-cells. Negative controls, in the case of tideglusib, were performed with DMSO (Fisher Scientific, BP-231). At 48 hours after drug administration, RNA and proteins were extracted. Protein collection from muscle samples and cell cultures, as well as Western blot procedure, were performed as previously described (Jaka et al., Expert Reviews in Molecular Medicine, 2017, 19, e2).

GSK3β [1] = experiment: Western blot of GSK3β and P-GSK3β (Ser9) in human primary myotubes; type: cell-based; details: LGMDR1 patients' myotubes, day 8 of differentiation, 1.2 μM, 48 h
Protocol: To isolate the pure population of myoblasts and CD56-negative cells (CD56-), the protocol described previously (Jaka et al., Expert Reviews in Molecular Medicine, 2017, 19, e2) was used, using immunomagnetic separation based on the early presence of the surface marker CD56 (Miltenyi Biotec, 130-050-401). Myoblasts were cultured in proliferation medium (DMEM, M-199, Insulin, Glutamine and penicillin-streptomycin) with 10% FBS and growth factors at 37° C. in 5% CO2 air incubator. When myoblasts reached confluence, the FBS concentration was reduced to 2% and growth factors were removed from the medium, promoting fusion and production of myotubes. Tideglusib was provided by Dr. Ana Martínez (from The Center for Biological Research, CSIC). It was administered at 1.2 μM, whereas LiCI (Sigma-Aldrich, L7026) was used for comparative purposes at a final concentration of 10 mM. Tideglusib and LiCI were administered at the above referred concentrations to myotubes at eight days of differentiation, and tideglusib also to skin fibroblasts and to CD56-cells. Negative controls, in the case of tideglusib, were performed with DMSO (Fisher Scientific, BP-231). At 48 hours after drug administration, RNA and proteins were extracted. […]

integrin β1D and melusin = experiment: Western blot of structural (costamere) proteins in human myotubes; type: cell-based; details: 1.2 μM, 48 h
Protocol: as §5, with “130-050-401). Myoblasts were cultured in proliferation medium (DMEM, M-199, Insulin, Glutamine and penicillin-streptomycin) with 10% FBS and growth factors at 37° C. in 5% CO2 air incubator. When myoblasts reached confluence, the FBS concentration was reduced to 2% and growth factors were removed from the medium, promoting fusion and production of myotubes.” for “130-050-401).”, “Protein collection from muscle samples and cell cultures, as well as Western blot procedure, were performed as previously described (Jaka et al., Expert Reviews in Molecular Medicine, 2017, 19, e2).” left out

mTOR = experiment: Western blot of mTOR and P-mTOR in human primary myotubes; type: cell-based; details: LGMDR1 patient's myotubes, 1.2 μM, 48 h
Protocol: as §5, with “130-050-401). Myoblasts were cultured in proliferation medium (DMEM, M-199, Insulin, Glutamine and penicillin-streptomycin) with 10% FBS and growth factors at 37° C. in 5% CO2 air incubator. When myoblasts reached confluence, the FBS concentration was reduced to 2% and growth factors were removed from the medium, promoting fusion and production of myotubes.” for “130-050-401).”

skin fibroblasts = experiment: Western blot of Wnt and mTOR pathway proteins in skin fibroblasts; type: cell-based, human; details: 1.2 μM, 48 h
Protocol: Skin fibroblasts from healthy controls and from LGMDR1 patients were provided by Dr. Ana Aiastui (Biodonostia Health Research Institute, Cell Culture and Histology Platform). Cells were cultured in Dulbecco's modified Eagle's medium (DMEM, Gibco, 41966-029) supplemented with 10% FBS (Gibco, 10270-106) and 1% penicillin-streptomycin (Gibco, 15140-122) at 37° C. in a 5% CO2 air incubator. Human fibroblasts were cultured at a density of 4×10^4 cells/ml. Tideglusib was provided by Dr. Ana Martínez (from The Center for Biological Research, CSIC). It was administered at 1.2 μM, whereas LiCI (Sigma-Aldrich, L7026) was used for comparative purposes at a final concentration of 10 mM. Tideglusib and LiCI were administered at the above referred concentrations to myotubes at eight days of differentiation, and tideglusib also to skin fibroblasts and to CD56-cells. Negative controls, in the case of tideglusib, were performed with DMSO (Fisher Scientific, BP-231). At 48 hours after drug administration, RNA and proteins were extracted. Protein collection from muscle samples and cell cultures, as well as Western blot procedure, were performed as previously described (Jaka et al., Expert Reviews in Molecular Medicine, 2017, 19, e2).

[2] = system: CAPN3, FOS, ANOS1 and ITGB1BP2 genes; experiment: Quantitative real-time PCR of deregulated genes in LGMDR1 myotubes; type: cell-based, human; details: 1.2 μM, 48 h
Protocol: Tideglusib was provided by Dr. Ana Martínez (from The Center for Biological Research, CSIC). It was administered at 1.2 μM, whereas LiCI (Sigma-Aldrich, L7026) was used for comparative purposes at a final concentration of 10 mM. Tideglusib and LiCI were administered at the above referred concentrations to myotubes at eight days of differentiation, and tideglusib also to skin fibroblasts and to CD56-cells. Negative controls, in the case of tideglusib, were performed with DMSO (Fisher Scientific, BP-231). At 48 hours after drug administration, RNA and proteins were extracted. RNA extraction from primary myoblast/myotubes was performed with an RNeasy Mini Kit (Qiagen). In the case of the muscle biopsies, which were snap frozen and stored at −80° C. until use, total RNA was obtained using an RNA-Plus Kit (QBiogene). The isolated RNA was reverse-transcribed to first-strand complementary DNA (cDNA) in a final volume of 50 μl using a High Capacity cDNA Reverse Transcription Kit (Applied Biosystems), according to the manufacturer's instructions. The expression levels of CAPN3, FOS, ITGB1BP2, ANOS1 and GAPDH genes in the samples were assessed by real-time quantitative PCR with TaqMan probes (Table Il below) using the ‘CFX384 Real-Time PCR Detection System’ (Bio-Rad).

p70S6K = experiment: Western blot of p70S6K and its phosphorylated forms in human primary myotubes (controls and LGMDR1 patients); type: cell-based; details: 48 h; for P-p70S6K (T389), protein expression value relative to the same sample without treatment / P-p70S6K (T421-S424), protein expression value relative to the same sample without treatment: tideglusib 1.2 μM
Protocol: as §1, §2, §3, §4

β-catenin = experiment: Western blot of total and active β-catenin in human primary myotubes (Wnt pathway activation); type: cell-based; details: day 8 of differentiation, 48 h; for active β-catenin: tideglusib 1.2 μM, LiCl 10 mM
Protocol: as §1, §2, §3, §4

GSK3β [3] = details: low dose of LiCl treatment; cited from earlier work
GSK3 = details: low therapeutic dose of lithium (0.5 mM); cited from earlier work
FRBZ gene, β1D integrin = details: primary myotubes, LiCl treatment; cited from earlier work
[4] = LGMDR1 patient's myotubes, 1.2 μM
[5] = myotubes of LGMDR1 patient 09-25

## O=c1sn(-c2cccc3ccccc23)c(=O)n1Cc1ccccc1 [Tideglusib, 4-benzyl2-naphthalen-1-yl-[1,2,4]thiadiazolidine-3,5-dione]
RPS6; [4]
  phosphorylation of RPS6 (Ser235/Ser236): increased
RPS6; [5]
  P-RPS6 (S235-S236), protein expression value relative to the same sample without treatment: 1.6
RPS6; myotubes of control 13-05
  P-RPS6 (S235-S236), protein expression value relative to the same sample without treatment: 0.8
CD56-cells
  active form of β-catenin: no significant alteration
  amount of total β-catenin: no significant alteration
  mTOR: no differences
  phosphorylation of RPS6: no differences
  phosphorylation of p70S6K: no differences
GSK3β [1]
  amount of total GSK3β: increases
  phosphorylation of GSK3β (Ser9): increases
Integrin β1D and melusin
  integrin β1D protein: increase
  melusin protein: increase
mTOR
  phosphorylation of mTOR (Ser2448): significant increase
  phosphorylation of mTOR (Ser2481): significant increase
  total mTOR: no significant changes
Skin fibroblasts
  active form of β-catenin: did not show an increase
  phosphorylation of GSK3β (Ser9): did not show an increase
  phosphorylation of RPS6: decrease
  β-catenin: did not show an increase
[2]
  expression of ANOS1 gene: increase
  expression of CAPN3 gene: increase
  expression of FOS gene: increase
  expression of ITGB1BP2 gene: increase
p70S6K; [4]
  expression of total p70S6K: increased
  phosphorylation of p70S6K (Thr389): increased
  phosphorylation of p70S6K (Thr421/Ser424): increased
p70S6K; control myotubes, 1.2 μM
  effect on p70S6K, its phosphorylation and P-RPS6: very slight
p70S6K; [5]
  P-p70S6K (T389), protein expression value relative to the same sample without treatment: 1.8
  P-p70S6K (T421-S424), protein expression value relative to the same sample without treatment: 1.8
p70S6K; myotubes of control 13-05
  P-p70S6K (T389), protein expression value relative to the same sample without treatment: 0.85
  P-p70S6K (T421-S424), protein expression value relative to the same sample without treatment: 0.8
β-catenin; 1.2 μM
  total β-catenin expression: increase
β-catenin
  active β-catenin: increase

## [Cl-].[Li+] [LiCl]
RPS6; myotubes of LGMDR1 patient 09-21, same sample without drug 1.5
  P-RPS6 (S235-S236), Western blot densitometry: 1.5
RPS6; myotubes of LGMDR1 patient 09-24, same sample without drug 3.5
  P-RPS6 (S235-S236), Western blot densitometry: 3
RPS6; myotubes of LGMDR1 patient 09-25, same sample without drug 2.8
  P-RPS6 (S235-S236), Western blot densitometry: 2.5
RPS6; myotubes of control 09-23, same sample without drug 3.0
  P-RPS6 (S235-S236), Western blot densitometry: 3.8
RPS6; myotubes of control 13-07, same sample without drug 3
  P-RPS6 (S235-S236), Western blot densitometry: 3
GSK3β [3]
  GSK3β inhibition: effective in inhibiting
  fatigue resistance in some muscles via NFAT activation: enhances
p70S6K; LiCl 10 mM, myotubes of LGMDR1 patient 09-21, same sample without drug 0.3
  P-p70S6K (T421-S424), Western blot densitometry: 0.5
p70S6K; LiCl 10 mM, myotubes of LGMDR1 patient 09-24, same sample without drug 1.8
  P-p70S6K (T421-S424), Western blot densitometry: 1.4
p70S6K; LiCl 10 mM, myotubes of LGMDR1 patient 09-25, same sample without drug 0.7
  P-p70S6K (T421-S424), Western blot densitometry: 0.65
p70S6K; LiCl 10 mM, myotubes of control 09-23, same sample without drug 0.8
  P-p70S6K (T421-S424), Western blot densitometry: 0.78
p70S6K; LiCl 10 mM, myotubes of control 13-07, same sample without drug 0.8
  P-p70S6K (T421-S424), Western blot densitometry: 0.7
p70S6K; control and LGMDR1 patient's myotubes, LiCl 10 mM
  proteins involved in the mTOR pathway and their phosphorylation forms (p70S6K, RPS6): did not provide any increase
β-catenin
  active β-catenin: increase
GSK3
  GSK3 inhibition: inhibit
  myoblast fusion: augment
FRBZ gene, β1D integrin
  expression of the FRBZ gene: lower levels
  β1D adult isoform of the integrin: higher levels

— patent US20240245657A1, “THIADIAZOLIDINONES FOR THEIR USE IN THE TREATMENT OF LIMB-GIRDLE MUSCULAR DYSTROPHY” (CONSEJO SUPERIOR DE INVESTIGACIONES CIENTÍFICAS, priority 2021, published 2024)
